Measurements reported in patent US20240239813A1, “KRAS INHIBITORS AND PHARMACEUTICAL USES THEREOF” (RISEN (SUZHOU) PHARMA TECH CO., LTD., priority 2022, published 2024).

Target: His-tagged Human KRAS^G12D (Homo sapiens (Human), UniProt P01116, G12D)
Assay: HTRF KRAS G12D GTP binding assay
Conditions: displacement of GTP-Red tracer
Protocol: KRAS^G12D was used in this assay.
The ability of a test compound to bind to KRAS^G12D was measured by using an HTRF KRAS^G12D GTP Binding Kit (Cisbio, 63ADK000CB27PEG). […] 5 μL of compound solution was added to each well after serial dilution, followed by addition of 5 μL of GDP (50 nM) solution. After 30 minutes incubation at room temperature, 1×6His Eu cryptate antibody solution and GTP-Red tracer were added to the plate, then incubated for another 30 minutes. The HTRF signal was measured with a VICTOR Nivo multimode plate reader according to the manufacturer's instructions. The percent inhibition was calculated using the following formula: […]
(where the “Maximum Signal” are wells containing DMSO without inhibitor; the “Minimum Signal” are wells containing reference inhibitory component (GDP); the “Test compound signal” are wells containing test compound (inhibitor) at established concentrations).
IC50 was determined by fitting percent inhibition at each inhibitor concentration to the four-parameter nonlinear logistic equation using GraphPad Prism.

Sequence of His-tagged Human KRAS^G12D (P01116-2 other isoform, or with tags, fused parts or gaps G12D): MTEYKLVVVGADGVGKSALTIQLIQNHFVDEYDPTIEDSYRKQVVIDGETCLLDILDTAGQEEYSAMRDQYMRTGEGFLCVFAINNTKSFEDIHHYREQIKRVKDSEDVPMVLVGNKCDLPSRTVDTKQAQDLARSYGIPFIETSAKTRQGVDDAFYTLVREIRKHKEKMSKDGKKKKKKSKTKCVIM

Structure (SMILES)	IC50
CCc1c(F)ccc2cc(O)cc(-c3ncc4c(N5CCC6(CCOC6)C5)nc(OC[C@@]56CCCN5C[C@H](F)C6)nc4c3F)c12 (some centres unmarked) [Compound 1a]	0.752 µM
CCc1c(F)ccc2cc(O)cc(-c3ncc4c(N5CCCC6(CCO6)C5)nc(OC[C@@H]5C[C@@H](F)CN5C)nc4c3F)c12 (some centres unmarked) [Compound 3a]	0.141 µM
CCc1c(F)ccc2cc(O)cc(-c3ncc4c(N5CCCC6(CCN6)C5)nc(OC[C@@]56CCCN5C[C@H](F)C6)nc4c3F)c12 (some centres unmarked) [Compound 4a]	> 1 µM
CCc1c(F)ccc2cc(O)cc(-c3ncc4c(N5CCC[C@@H](OC)C5)nc(OC[C@@]56CCCN5C[C@H](F)C6)nc4c3F)c12 [Compound 5a]	0.652 µM
CCc1c(F)ccc2cc(O)cc(-c3ncc4c(N5CC6(CCO6)C5)nc(OC[C@@]56CCCN5C[C@H](F)C6)nc4c3F)c12 [Compound 6a]	> 1 µM
CCc1c(F)ccc2cc(O)cc(-c3ncc4c(N5CC6CC(CO)(C6)C5)nc(OC[C@@]56CCCN5C[C@H](F)C6)nc4c3F)c12 [Compound 7a]	> 1 µM
CCc1c(F)ccc2cc(O)cc(-c3ncc4c(N5CCC[C@H]5C(=O)O)nc(OC[C@@]56CCCN5C[C@H](F)C6)nc4c3F)c12 [Compound 8]	> 1 µM
CCc1c(F)ccc2cc(O)cc(-c3ncc4c(N5CCCC6(CCO6)C5)nc(OC[C@H](C)OC)nc4c3F)c12 (some centres unmarked) [Compound 11a]	> 1 µM
CCc1c(F)ccc2cc(O)cc(-c3ncc4c(N5C6CCC5COC6)nc(OC[C@@]56CCCN5C[C@H](F)C6)nc4c3F)c12 [Compound 12]	> 1 µM
CCc1c(F)ccc2cc(O)cc(-c3ncc4c(N5CCC[C@]6(CCO6)C5)nc(OCC5(CN6CCN(C)CC6)CC5)nc4c3F)c12 [Compound 12a]	0.0121 µM
CCc1c(F)ccc2cc(O)cc(-c3ncc4c(N5CC6CCC(C5)O6)nc(OC[C@@]56CCCN5C[C@H](F)C6)nc4c3F)c12 [Compound 13]	0.979 µM
CCc1c(F)ccc2cc(O)cc(-c3ncc4c(N5CCCC56COC6)nc(OC[C@@]56CCCN5C[C@H](F)C6)nc4c3F)c12 [Compound 14]	> 1 µM
CCc1c(F)ccc2cc(O)cc(-c3ncc4c(N5C6CCC5CC6)nc(OC[C@@]56CCCN5C[C@H](F)C6)nc4c3F)c12 [Compound 15]	> 1 µM
CCc1c(F)ccc2cc(O)cc(-c3ncc4c(N5CCC(C)(O)C5)nc(OC[C@@]56CCCN5C[C@H](F)C6)nc4c3F)c12 (some centres unmarked) [Compound 16]	> 1 µM
CCc1c(F)ccc2cc(O)cc(-c3ncc4c(N5C6CCCC5CC6)nc(OC[C@@]56CCCN5C[C@H](F)C6)nc4c3F)c12 [Compound 17]	> 1 µM
CCc1c(F)ccc2cc(O)cc(-c3ncc4c(N5CC(C)(O)C5)nc(OC[C@@]56CCCN5C[C@H](F)C6)nc4c3F)c12 [Compound 18]	> 10 µM
CCc1c(F)ccc2cc(O)cc(-c3ncc4c(N5CCCC5c5ccccc5)nc(OC[C@@]56CCCN5C[C@H](F)C6)nc4c3F)c12 (some centres unmarked) [Compound 19]	> 10 µM
CCc1c(F)ccc2cc(O)cc(-c3ncc4c(N5CCCC(c6ccccc6)C5)nc(OC[C@@]56CCCN5C[C@H](F)C6)nc4c3F)c12 (some centres unmarked) [Compound 20]	> 10 µM
CCc1c(F)ccc2cc(O)cc(-c3ncc4c(N5CC(F)(F)C[C@H]5CO)nc(OC[C@@]56CCCN5C[C@H](F)C6)nc4c3F)c12 [Compound 21]	> 10 µM
CCc1c(F)ccc2cc(O)cc(-c3ncc4c(N5CCC[C@@]5(C)CO)nc(OC[C@@]56CCCN5C[C@H](F)C6)nc4c3F)c12 [Compound 22]	> 10 µM

Structure (SMILES)	IC50
CCc1c(F)ccc2cc(O)cc(-c3ncc4c(N5CCC[C@H]5CN)nc(OC[C@@]56CCCN5C[C@H](F)C6)nc4c3F)c12 [Compound 23]	1.35 µM
CCc1c(F)ccc2cc(O)cc(-c3ncc4c(N5CCCC5c5cccnc5)nc(OC[C@@]56CCCN5C[C@H](F)C6)nc4c3F)c12 (some centres unmarked) [Compound 24]	> 10 µM
CCc1c(F)ccc2cc(O)cc(-c3ncc4c(N5CCCC(Cl)(CCO)C5)nc(OC[C@@]56CCCN5C[C@H](F)C6)nc4c3F)c12 (some centres unmarked) [Compound 26]	1.53 µM
CCc1c(F)ccc2cc(O)cc(-c3ncc4c(N5C[C@@H]6C[C@@H](O)[C@H]5C6)nc(OC[C@@]56CCCN5C[C@H](F)C6)nc4c3F)c12 [Compound 27]	> 10 µM
CCc1c(F)ccc2cc(O)cc(-c3ncc4c(NC5CC6(CCC6)C5)nc(OC[C@@]56CCCN5C[C@H](F)C6)nc4c3F)c12 [Compound 28]	> 10 µM
CCc1c(F)ccc2cc(O)cc(-c3ncc4c(N5CC[C@@H](C(C)(C)O)C5)nc(OC[C@@]56CCCN5C[C@H](F)C6)nc4c3F)c12 [Compound 29]	> 10 µM
CCc1c(F)ccc2cc(O)cc(-c3ncc4c(N5CCC[C@H]5CN5CCCC5)nc(OC[C@@]56CCCN5C[C@H](F)C6)nc4c3F)c12 [Compound 30]	> 10 µM
CCc1c(F)ccc2cc(O)cc(-c3ncc4c(N5CCN(C(C)=O)[C@H](C)C5)nc(OC[C@@]56CCCN5C[C@H](F)C6)nc4c3F)c12 [Compound 31]	> 10 µM
CCc1c(F)ccc2cc(O)cc(-c3ncc4c(N5CC[C@@H](CO)C5)nc(OC[C@@]56CCCN5C[C@H](F)C6)nc4c3F)c12 [Compound 32]	> 1 µM
CCc1c(F)ccc2cc(O)cc(-c3ncc4c(N5C[C@@H](N)C[C@H]5CO)nc(OC[C@@]56CCCN5C[C@H](F)C6)nc4c3F)c12 [Compound 33]	> 1 µM
CCc1c(F)ccc2cc(O)cc(-c3ncc4c(N5CCN[C@H](C)C5)nc(OC[C@@]56CCCN5C[C@H](F)C6)nc4c3F)c12 [Compound 34]	> 1 µM
CCc1c(F)ccc2cc(O)cc(-c3ncc4c(N5C[C@@H]6C[C@H]5CO6)nc(OC[C@@]56CCCN5C[C@H](F)C6)nc4c3F)c12 [Compound 35]	> 1 µM
CCc1c(F)ccc2cc(O)cc(-c3ncc4c(N5CC6(CC(O)C6)C5)nc(OC[C@@]56CCCN5C[C@H](F)C6)nc4c3F)c12 [Compound 36]	> 1 µM
CCc1c(F)ccc2cc(O)cc(-c3ncc4c(N5C[C@H]6C[C@@H]5[C@@H](O)C6)nc(OC[C@@]56CCCN5C[C@H](F)C6)nc4c3F)c12 [Compound 37]	> 1 µM
CCc1c(F)ccc2cc(O)cc(-c3ncc4c(N5CCCC[C@@H](N)C5)nc(OC[C@@]56CCCN5C[C@H](F)C6)nc4c3F)c12 [Compound 38]	0.163 µM
CCc1c(F)ccc2cc(O)cc(-c3ncc4c(N5CC6CC(C6)C5)nc(OCC5(CN(C)C)CC5)nc4c3F)c12 [Compound 38a]	> 1 µM
CCc1c(F)ccc2cc(O)cc(-c3ncc4c(N5CCC6(CCCCC6)C5)nc(OC[C@@]56CCCN5C[C@H](F)C6)nc4c3F)c12 [Compound 40]	> 1 µM
CCc1c(F)ccc2cc(O)cc(-c3ncc4c(N5CCC6(CNC(=O)O6)C5)nc(OC[C@@]56CCCN5C[C@H](F)C6)nc4c3F)c12 (some centres unmarked) [Compound 43]	> 1 µM
CCc1c(F)ccc2cc(O)cc(-c3ncc4c(N5CC6(CC(=O)C6)C5)nc(OC[C@@]56CCCN5C[C@H](F)C6)nc4c3F)c12 [Compound 44]	> 1 µM

Results, then the molecule that gave them:

IC50	Structure (SMILES)
0.0132 µM	CCc1c(F)ccc2cc(O)cc(-c3ncc4c(N5CCC[C@]6(CCO6)C5)nc(OCC5(CN6CCC6)CC5)nc4c3F)c12 [Compound 13a]
> 1 µM	Cc1ccc2[nH]ncc2c1-c1ccc2c(N3CCC[C@]4(CCO4)C3)nc(OCC3(CN(C)C)CC3)nc2c1F [Compound 14a]
0.0312 µM	CCc1c(F)ccc2cc(O)cc(-c3ncc4c(N5CCC[C@]6(CCO6)C5)nc(OCC5(CN6CCC7(CCC7)CC6)CC5)nc4c3F)c12 [Compound 23a]
0.639 µM	CN(C)CC1(COc2nc(N3CCC[C@]4(CCO4)C3)c3cnc(-c4cc(O)ccc4-c4cccs4)c(F)c3n2)CC1 [Compound 25a]
0.159 µM	CCc1c(F)ccc2cc(O)cc(-c3ncc4c(N5CCC[C@]6(CCO6)C5)nc(OCC5(CN6CC(F)(F)C6)CC5)nc4c3F)c12 [Compound 28a]
0.0416 µM	CCc1c(F)ccc2cc(O)cc(-c3ncc4c(N5CCC[C@]6(CCO6)C5)nc(OCC5(CN6CCC(F)(F)CC6)CC5)nc4c3F)c12 [Compound 30a]
0.518 µM	CCc1c(F)ccc2cc(O)cc(-c3ncc4c(N5CCC[C@]6(CCO6)C5)nc(OCC5(CC(N)=O)CC5)nc4c3F)c12 [Compound 31a]
0.481 µM	CCc1c(F)ccc2cc(O)cc(-c3ncc4c(N(C)CC(C)(C)O)nc(OCC5(CN(C)C)CC5)nc4c3F)c12 [Compound 32a]
> 1 µM	CN(C)CC1(COc2nc(N3CCC[C@]4(CCO4)C3)c3cnc(-c4ccc(F)c5sc(N)c(C#N)c45)c(F)c3n2)CC1 [Compound 35a]
> 1 µM	C#Cc1c(F)ccc2cc(O)cc(-c3ncc4c(N5CC=CCC5)nc(OCC5(CN(C)C)CC5)nc4c3F)c12 [Compound 36a]
0.121 µM	CCc1c(F)ccc2cc(O)cc(-c3ncc4c(N5CCC[C@]6(CCO6)C5)nc(OCC5(N(C)C)CC5)nc4c3F)c12 [Compound 37a]
> 1 µM	CN(C)CC1(COc2nc(N3CCC[C@]4(CCO4)C3)c3cc(Cl)c(-c4ccc(F)c5sc(N)c(C#N)c45)c(F)c3n2)CC1 [Compound 39a]
0.424 µM	CCc1c(F)ccc2cc(O)cc(-c3ncc4c(N5CCCC(OC)CC5)nc(OCC5(CN(C)C)CC5)nc4c3F)c12 (centres unmarked) [Compound 40a]
0.0142 µM	CCc1c(F)ccc2cc(O)cc(-c3ncc4c(N5CCC[C@]6(CCO6)C5)nc(OCC5(CN6CCC(F)C6)CC5)nc4c3F)c12 (some centres unmarked) [Compound 41a]
> 1 µM	CCc1c(F)ccc2cc(O)cc(-c3ncc4c(N5CCCC(C#N)CC5)nc(OCC5(CN(C)C)CC5)nc4c3F)c12 (centres unmarked) [Compound 42a]
0.557 µM	CCc1c(F)ccc2cc(O)cc(-c3ncc4c(N5CCCCCC5)nc(OCC5(CN(C)C)CC5)nc4c3F)c12 [Compound 43a]
0.234 µM	CCc1c(F)ccc2cc(O)cc(-c3ncc4c(N5CCCC(O)CC5)nc(OCC5(CN(C)C)CC5)nc4c3F)c12 (centres unmarked) [Compound 44a]
